Reference: publication PMC5908784, “Extracellular loops 2 and 3 of the calcitonin receptor selectively modify agonist binding and efficacy” (Biochemical Pharmacology, 2018)
Numbering of substitutions follows the chain as printed. Where no end group is shown, it is not given here.

What was measured:
Experiment in all cases: Homologous whole cell competition binding
Details in all cases: homologous competition of 125I-sCT(8-32), whole cells, mean ± S.E.M., SEM
hCTR L368A = biological target: T1, hCTR L368A (Homo sapiens, UniProt P30988, L368A)
T1 construct: c-Myc (N); expressed in transfected cells
T1 sequence (P30988 25-474 L368A): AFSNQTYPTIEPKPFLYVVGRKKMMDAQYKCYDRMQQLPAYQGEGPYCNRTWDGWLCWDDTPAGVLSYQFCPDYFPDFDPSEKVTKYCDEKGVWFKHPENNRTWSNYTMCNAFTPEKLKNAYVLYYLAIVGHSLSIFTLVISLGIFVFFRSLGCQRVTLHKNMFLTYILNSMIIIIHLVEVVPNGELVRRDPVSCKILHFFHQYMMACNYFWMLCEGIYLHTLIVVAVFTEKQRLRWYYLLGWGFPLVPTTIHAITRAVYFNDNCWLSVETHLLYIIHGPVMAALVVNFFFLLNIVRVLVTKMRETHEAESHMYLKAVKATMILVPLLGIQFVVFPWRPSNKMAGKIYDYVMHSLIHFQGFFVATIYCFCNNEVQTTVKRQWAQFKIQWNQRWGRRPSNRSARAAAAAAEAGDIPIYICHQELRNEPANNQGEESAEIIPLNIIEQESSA
Summary of the method: (§1)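 Values are pKi, derived from IC50 of unlabelled sCT(8-32) displacing ^125I-sCT(8-32) (25–100 pM) from whole cells after overnight incubation at 4 °C. Specific binding was scaled between tracer-only total and 1 μM cold-peptide background.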

hCTR Y299A = biological target: T2, hCTR Y299A (Homo sapiens, UniProt P30988, Y299A)
T2 construct: c-Myc (N); expressed in transfected cells
T2 sequence (P30988 25-474 Y299A): T1 sequence (P30988 25-474 L368A) with Y275A, A344L
Summary of the method: as §1

hCTR R362A = biological target: T3, hCTR R362A (Homo sapiens, UniProt P30988, R362A)
T3 construct: expressed in transfected cells
T3 sequence (P30988 25-474 R362A): T1 sequence (P30988 25-474 L368A) with R338A, A344L
Summary of the method: as §1

hCTR L297A = biological target: T4, hCTR L297A (Homo sapiens, UniProt P30988, L297A)
T4 construct: c-Myc (N); expressed in transfected cells
T4 sequence (P30988 25-474 L297A): T1 sequence (P30988 25-474 L368A) with L273A, A344L
Summary of the method: as §1

Ki (hCTR L368A): 0.209 nM
Ki (hCTR Y299A): 0.107 nM
Ki (hCTR R362A): 0.219 nM
Ki (hCTR L297A): 0.0631 nM
Substance: VLGKLSQELHKLQTYPRTNTGSGTP-NH2 [sCT(8-32)]
